Assay results published in the supplement of paper PMC6045584.
± gives the standard deviation of the averaged measurements.

Tests used:
OSI-906 [1] = compound: T1, C[C@]1(O)C[C@@H](c2nc(-c3ccc4ccc(-c5ccccc5)nc4c3)c3c(N)nccn32)C1 [OSI-906]; test: surviving fraction relative to DMSO-only wells; higher = less growth inhibition; conditions: exposure time: 5 days
Summary of the method: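 Inhibitors were tested at 0.5, 1, 5, 10, 50, 100, 500 and 1000 nM, applied continuously for five days beginning 24 hours after log-phase tumour cells were seeded at 250–500 per well in 384-well plates. CellTiter-Glo luminescence served as the viability measure, expressed as surviving fraction against the median of DMSO-only wells. Each line, screened three times, was kept only with replicate Pearson r >0.7 and median Z' >0.3.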

[2] = compound: CC(=O)NCC(=O)N1[C@@H]2CC[C@H]1c1ccc(Nc3ncc(C(F)(F)F)c(NC4CCC4)n3)cc12; test: area under dose-response curve of surviving fraction (unscaled, Aref=0) (surviving fraction x log10(nM)); higher = more resistant; conditions: exposure time: 5 days; dose range 0.5-1000 nM
Summary of the method: (§1)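 Tumour cell lines in 384-well plates were exposed for five days to eight inhibitor concentrations from 0.5 to 1000 nM. Viability was read by CellTiter-Glo luminescence, normalised to DMSO-only wells, in three screens per line. Dose-response survival curves were fitted to surviving fractions by 3-parameter logistic regression in the drc R package. Area under the curve is the unscaled activity area (Aref = 0) over log10 dose.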

PACLITAXEL = compound: CC(=O)O[C@H]1C(=O)[C@@]2(C)[C@H]([C@H](OC(=O)c3ccccc3)[C@]3(O)C[C@H](OC(=O)[C@H](O)[C@@H](NC(=O)c4ccccc4)c4ccccc4)C(C)=C1C3(C)C)[C@]1(OC(C)=O)CO[C@@H]1C[C@@H]2O [PACLITAXEL]; test: as above; conditions: exposure time: 5 days; dose range 0.5-1000 nM
Summary of the method: as §1

[3] = compound: CC(=O)c1c(C)c2cnc(Nc3ccc(N4CCNCC4)cn3)nc2n(C2CCCC2)c1=O; test: as above; conditions: exposure time: 5 days; dose range 0.5-1000 nM
Summary of the method: as §1

CAMPTOTHECIN = compound: CC[C@@]1(O)C(=O)OCc2c1cc1n(c2=O)Cc2cc3ccccc3nc2-1 [CAMPTOTHECIN]; test: as above; conditions: exposure time: 5 days; dose range 0.5-1000 nM
Summary of the method: as §1

YM155 = compound: COCC[n+]1c2c(n(Cc3cnccn3)c1C)C(=O)c1ccccc1C2=O [YM155]; test: as above; conditions: exposure time: 5 days; dose range 0.5-1000 nM
Summary of the method: as §1

GEFITINIB = compound: COc1cc2ncnc(Nc3ccc(F)c(Cl)c3)c2cc1OCCCN1CCOCC1 [GEFITINIB]; test: as above; conditions: exposure time: 5 days; dose range 0.5-1000 nM
Summary of the method: as §1

OSI-906 [4] = compound: T1, OSI-906; test: as above; conditions: exposure time: 5 days; dose range 0.5-1000 nM
Summary of the method: as §1

CELECOXIB = compound: Cc1ccc(-c2cc(C(F)(F)F)nn2-c2ccc(S(N)(=O)=O)cc2)cc1 [CELECOXIB]; test: as above; conditions: exposure time: 5 days; dose range 0.5-1000 nM
Summary of the method: as §1

CARBOPLATIN = compound: O=C(O)C1(C(=O)O)CCC1.[NH2-].[NH2-].[Pt+2] [CARBOPLATIN]; test: as above; conditions: exposure time: 5 days; dose range 0.5-1000 nM
Summary of the method: as §1

Row | Test System | surviving fraction (OSI-906 [1]; 0.5 nM) | surviving fraction (OSI-906 [1]; 1 nM) | surviving fraction (OSI-906 [1]; 5 nM) | surviving fraction (OSI-906 [1]; 10 nM) | surviving fraction (OSI-906 [1]; 50 nM) | surviving fraction (OSI-906 [1]; 100 nM) | surviving fraction (OSI-906 [1]; 500 nM) | surviving fraction (OSI-906 [1]; 1000 nM) | area under dose-response curve [2] | area under dose-response curve (PACLITAXEL) | area under dose-response curve [3] | area under dose-response curve (CAMPTOTHECIN) | area under dose-response curve (YM155) | area under dose-response curve (GEFITINIB) | area under dose-response curve (OSI-906 [4]) | area under dose-response curve (CELECOXIB) | area under dose-response curve (CARBOPLATIN)
1 | HOSMNG BONE | 0.94 ± 0.099 | 0.941 ± 0.076 | 0.948 ± 0.06 | 0.98 ± 0.062 | 0.854 ± 0.086 | 0.993 ± 0.1 | 0.957 ± 0.056 | 1 ± 0.032 | 2.83 | 1.85 | 3.41 | 1.82 | 1.76 | 3.45 | 3.13 | 3.18 | 3.65
2 | HSSYII SYNOVIAL | 0.8472 ± 0.0081 | 0.85 ± 0.027 | 0.9002 ± 0.0069 | 0.798 ± 0.021 | 0.814 ± 0.026 | 0.746 ± 0.04 | 0.673 ± 0.03 | 0.656 ± 0.026 | 1.97 | 0.524 | 3.04 | 0.531 | 0.716 | 3.35 | 2.6 | 3.39 | 3.19
3 | HU09 BONE | 0.79 ± 0.071 | 0.852 ± 0.082 | 0.956 ± 0.067 | 0.909 ± 0.043 | 0.854 ± 0.11 | 0.785 ± 0.027 | 0.517 ± 0.087 | 0.481 ± 0.04 | 2.44 | 0.426 | 3.47 | 0.747 | 2.13 | 3.37 | 2.66 | 3.26 | 3.58
4 | JIMT1 BREAST | 0.921 ± 0.029 | 0.892 ± 0.02 | 0.92 ± 0.063 | 0.926 ± 0.03 | 1.02 ± 0.039 | 1.08 ± 0.094 | 1.02 ± 0.077 | 1.02 ± 0.046 | 2.96 | 0.48 | 3.35 | 1.8 | 1.39 | 3.29 | 3.15 | 3.51 | 3.31
5 | KPD BONE | 0.958 ± 0.037 | 0.978 ± 0.051 | 0.9457 ± 0.0072 | 0.952 ± 0.097 | 0.796 ± 0.018 | 0.557 ± 0.021 | 0.112 ± 0.0049 | 0.081 ± 0.019 | 2.67 | 1.47 | 3.15 | 1.2 | 1.1 | 3.15 | 2.38 | 3.48 | 3.52
6 | LNCAP PROSTATE | 1.12 ± 0.058 | 1.07 ± 0.095 | 1.07 ± 0.036 | 1.11 ± 0.018 | 0.991 ± 0.12 | 1.05 ± 0.1 | 1.04 ± 0.032 | 1.06 ± 0.026 | 2.3 | 0.354 | 3.12 | 0.813 | 1.82 | 3.19 | 3.5 | 3.19 | 3.35
7 | MCF7 BREAST | 0.832 ± 0.042 | 0.85 ± 0.044 | 0.816 ± 0.022 | 0.825 ± 0.056 | 0.831 ± 0.018 | 0.847 ± 0.029 | 0.722 ± 0.036 | 0.661 ± 0.013 | 2.53 | 1.43 | 3.03 | 1.55 | 1.18 | 3.14 | 2.69 | 3.11 | 3.08
8 | MDAMB134 BREAST | 0.667 ± 0.12 | 0.797 ± 0.014 | 0.679 ± 0.039 | 0.627 ± 0.037 | 0.732 ± 0.016 | 0.72 ± 0.0071 | 0.587 ± 0.016 | 0.616 ± 0.088 | 3.57 | 2.33 | 3.84 | 2.11 | 2.43 | 3.62 | 2.32 | 3.59 | 3.15
9 | MDAMB361 BREAST | 0.669 ± 0.025 | 0.682 ± 0.024 | 0.721 ± 0.04 | 0.741 ± 0.061 | 0.847 ± 0.067 | 0.842 ± 0.011 | 0.758 ± 0.015 | 0.797 ± 0.033 | 3.12 | 2.36 | 2.85 | 2.14 | 1.61 | 2.9 | 2.51 | 2.93 | 2.64
10 | MDAMB436 BREAST | 0.805 ± 0.047 | 0.875 ± 0.055 | 0.887 ± 0.17 | 0.828 ± 0.054 | 0.948 ± 0.11 | 0.89 ± 0.068 | 0.985 ± 0.15 | 0.855 ± 0.12 | 2.63 | 1.01 | 3.02 | 1.06 | 1.42 | 3.12 | 2.93 | 3.4 | 3.18
11 | MDAMB468 BREAST | 0.867 ± 0.12 | 0.833 ± 0.13 | 0.95 ± 0.032 | 0.955 ± 0.092 | 1.06 ± 0.087 | 1.03 ± 0.036 | 0.851 ± 0.09 | 0.846 ± 0.019 | 2.44 | 0.701 | 3.48 | 1.41 | 0.87 | 3.08 | 3.08 | 3.83 | 3.37
12 | MHM BONE | 0.996 ± 0.021 | 0.978 ± 0.026 | 1.03 ± 0.025 | 0.999 ± 0.032 | 0.91 ± 0.05 | 0.872 ± 0.013 | 0.78 ± 0.022 | 0.721 ± 0.018 | 3.12 | 1.43 | 3.35 | 2.08 | 1.94 | 3.37 | 3.03 | 3.42 | 3.46
13 | NCIH441 LUNG | 0.976 ± 0.058 | 1 ± 0.033 | 0.993 ± 0.07 | 0.969 ± 0.03 | 1.04 ± 0.034 | 1.03 ± 0.028 | 0.841 ± 0.019 | 0.737 ± 0.048 | 2.94 | 1.56 | 3.59 | 1.41 | 1.12 | 3.59 | 3.21 | 3.66 | 3.51
14 | NY BONE | 0.9347 ± 0.009 | 0.9183 ± 0.0031 | 1.027 ± 0.01 | 0.96 ± 0.011 | 1 ± 0.011 | 0.977 ± 0.035 | 0.903 ± 0.023 | 0.915 ± 0.038 | 2.51 | 0.337 | 3.46 | 1.16 | 2.96 | 3.43 | 3.15 | 3.48 | 3.46
15 | OS25HAL BONE | 0.866 ± 0.066 | 0.892 ± 0.017 | 0.894 ± 0.025 | 0.871 ± 0.017 | 0.854 ± 0.039 | 0.762 ± 0.016 | 0.354 ± 0.015 | 0.256 ± 0.037 | 2.55 | 1.01 | 3.42 | 0.945 | 0.935 | 3.55 | 2.57 | 3.54 | 3.56
16 | SKBR3 BREAST | 0.752 ± 0.012 | 0.765 ± 0.027 | 0.814 ± 0.11 | 0.841 ± 0.0095 | 1.05 ± 0.11 | 0.871 ± 0.11 | 0.786 ± 0.07 | 0.681 ± 0.062 | – | 0.673 | 3.09 | 1.42 | 1.36 | 2.78 | 2.71 | 3.44 | 3.44
